Laboratory results from the supplement of paper PMC12463676, “Small-molecule dissolution of stress granules by redox modulation benefits ALS models” (Nature Chemical Biology, 2025).

Columns and labels:
[1] = compound: NC(=O)CCCCC1CCSS1 [lipoamide]; assay: thermal stability z-score vs DMSO; higher = more thermally stabilized by treatment; conditions: HeLa, lipoamide concentration 100 µM
Description: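 Cellular thermal proteome profiling in HeLa cells. Cells were treated with 100 µM lipoamide for 1 h, with or without 1 mM arsenate for a further 1 h, then heated to ten temperatures (37-66.3 °C), and soluble protein was quantified by TMT mass spectrometry relative to 0.1% DMSO controls. The thermal stability score (sum of log2 fold changes minus the abundance score) was transformed to a z-score; mean of n = 3 experiments.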

[2] = compound: O=[As]([O-])(O)O.[K+] [potassium arsenate]; assay: as above; conditions: HeLa; arsenate concentration 1 mM
Description: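 Cellular thermal proteome profiling in HeLa cells treated with 1 mM arsenate for 1 h (DMSO pretreatment), heated to ten temperatures (37-66.3 °C). Soluble protein was quantified by TMT mass spectrometry relative to DMSO controls; the thermal stability score was transformed to a z-score; mean of n = 3 experiments.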

[3] = arsenate co-treatment: 1 mM arsenate 1 h
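Also: each temperature applied for 3 min, abundance score taken as mean log2 fold change at the two lowest temperatures, z-score obtained by mean subtraction and division by SD.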

Sequence of UniProt Q12979 (Q12979 whole entry): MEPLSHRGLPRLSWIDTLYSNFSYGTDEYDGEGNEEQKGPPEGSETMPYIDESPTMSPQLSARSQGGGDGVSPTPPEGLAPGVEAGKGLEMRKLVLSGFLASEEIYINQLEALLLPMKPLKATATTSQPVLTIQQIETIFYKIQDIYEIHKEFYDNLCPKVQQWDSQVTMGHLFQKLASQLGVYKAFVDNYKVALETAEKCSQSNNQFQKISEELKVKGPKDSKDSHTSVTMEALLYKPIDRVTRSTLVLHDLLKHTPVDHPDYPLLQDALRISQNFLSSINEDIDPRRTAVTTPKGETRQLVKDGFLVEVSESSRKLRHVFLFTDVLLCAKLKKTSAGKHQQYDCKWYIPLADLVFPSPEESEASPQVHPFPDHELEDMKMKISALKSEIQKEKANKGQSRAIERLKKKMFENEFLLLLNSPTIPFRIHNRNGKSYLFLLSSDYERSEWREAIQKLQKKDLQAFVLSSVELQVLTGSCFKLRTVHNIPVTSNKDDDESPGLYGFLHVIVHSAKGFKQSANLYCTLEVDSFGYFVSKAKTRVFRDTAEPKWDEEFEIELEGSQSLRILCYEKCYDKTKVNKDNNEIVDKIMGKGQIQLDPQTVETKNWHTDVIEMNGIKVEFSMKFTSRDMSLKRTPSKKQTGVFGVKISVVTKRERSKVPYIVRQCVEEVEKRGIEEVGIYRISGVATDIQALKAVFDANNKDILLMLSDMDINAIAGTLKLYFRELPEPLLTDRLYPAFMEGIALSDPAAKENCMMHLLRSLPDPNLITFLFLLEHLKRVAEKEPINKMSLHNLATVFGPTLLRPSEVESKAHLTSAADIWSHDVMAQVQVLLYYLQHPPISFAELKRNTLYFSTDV
Sequence of UniProt Q5JTZ9 (Q5JTZ9 whole entry): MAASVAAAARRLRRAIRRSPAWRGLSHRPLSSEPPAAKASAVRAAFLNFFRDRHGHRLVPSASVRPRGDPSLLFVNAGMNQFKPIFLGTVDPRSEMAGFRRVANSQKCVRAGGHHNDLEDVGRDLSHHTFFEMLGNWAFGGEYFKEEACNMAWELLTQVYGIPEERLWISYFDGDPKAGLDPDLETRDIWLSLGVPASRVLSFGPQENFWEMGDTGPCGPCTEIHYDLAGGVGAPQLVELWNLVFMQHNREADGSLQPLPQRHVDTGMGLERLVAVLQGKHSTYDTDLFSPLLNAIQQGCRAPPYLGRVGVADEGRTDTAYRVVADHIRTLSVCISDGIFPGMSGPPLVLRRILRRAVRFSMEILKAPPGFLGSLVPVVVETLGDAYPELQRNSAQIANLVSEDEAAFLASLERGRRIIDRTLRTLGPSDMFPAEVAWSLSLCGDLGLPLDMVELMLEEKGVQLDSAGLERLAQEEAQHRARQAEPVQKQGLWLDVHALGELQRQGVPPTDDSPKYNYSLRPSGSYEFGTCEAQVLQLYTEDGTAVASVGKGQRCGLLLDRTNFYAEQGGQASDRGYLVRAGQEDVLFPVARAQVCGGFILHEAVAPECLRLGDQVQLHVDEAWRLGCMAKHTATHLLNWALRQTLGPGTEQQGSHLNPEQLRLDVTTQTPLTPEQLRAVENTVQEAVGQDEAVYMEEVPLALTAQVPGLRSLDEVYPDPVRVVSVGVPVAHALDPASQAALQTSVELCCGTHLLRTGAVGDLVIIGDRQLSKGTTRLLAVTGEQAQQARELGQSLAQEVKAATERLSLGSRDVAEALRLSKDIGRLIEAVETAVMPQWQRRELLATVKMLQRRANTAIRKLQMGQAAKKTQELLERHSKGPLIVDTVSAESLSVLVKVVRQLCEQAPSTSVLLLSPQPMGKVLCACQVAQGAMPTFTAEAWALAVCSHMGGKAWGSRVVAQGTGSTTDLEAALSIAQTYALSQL
Sequence of UniProt Q9UNQ0 (Q9UNQ0 whole entry): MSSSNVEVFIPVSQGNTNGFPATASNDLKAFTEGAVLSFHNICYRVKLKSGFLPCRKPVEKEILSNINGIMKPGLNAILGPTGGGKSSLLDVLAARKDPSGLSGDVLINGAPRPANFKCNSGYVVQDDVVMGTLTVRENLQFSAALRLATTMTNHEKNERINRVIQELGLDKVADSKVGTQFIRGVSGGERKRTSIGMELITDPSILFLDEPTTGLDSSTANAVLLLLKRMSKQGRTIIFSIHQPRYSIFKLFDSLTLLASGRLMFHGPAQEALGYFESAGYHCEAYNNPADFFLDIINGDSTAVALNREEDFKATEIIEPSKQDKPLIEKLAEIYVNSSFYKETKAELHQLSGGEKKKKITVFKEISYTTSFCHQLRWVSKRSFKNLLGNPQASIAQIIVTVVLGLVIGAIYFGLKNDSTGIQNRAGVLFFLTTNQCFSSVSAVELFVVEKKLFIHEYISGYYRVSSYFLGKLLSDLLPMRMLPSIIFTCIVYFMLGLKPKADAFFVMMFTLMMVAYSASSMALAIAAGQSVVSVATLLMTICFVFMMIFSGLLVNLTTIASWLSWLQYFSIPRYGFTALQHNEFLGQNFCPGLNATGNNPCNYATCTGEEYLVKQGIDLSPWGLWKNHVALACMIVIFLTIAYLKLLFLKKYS
Sequence of UniProt Q9H7C9 (Q9H7C9 whole entry): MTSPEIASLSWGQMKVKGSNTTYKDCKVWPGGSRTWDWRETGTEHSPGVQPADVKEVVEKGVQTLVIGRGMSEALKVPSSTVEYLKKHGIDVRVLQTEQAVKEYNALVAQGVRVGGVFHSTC
Sequence of UniProt Q9UKU7 (Q9UKU7 whole entry): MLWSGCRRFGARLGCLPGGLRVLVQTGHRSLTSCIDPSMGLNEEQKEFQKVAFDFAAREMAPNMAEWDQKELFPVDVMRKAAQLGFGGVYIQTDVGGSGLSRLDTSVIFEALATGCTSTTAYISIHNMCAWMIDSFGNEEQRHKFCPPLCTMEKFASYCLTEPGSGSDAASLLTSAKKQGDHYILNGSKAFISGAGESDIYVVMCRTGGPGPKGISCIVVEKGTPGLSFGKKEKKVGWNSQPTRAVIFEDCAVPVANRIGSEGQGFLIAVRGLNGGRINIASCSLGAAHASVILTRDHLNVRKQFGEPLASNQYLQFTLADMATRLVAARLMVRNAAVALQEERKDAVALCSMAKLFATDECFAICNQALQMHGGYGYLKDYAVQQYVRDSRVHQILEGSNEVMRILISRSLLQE
Sequence of UniProt Q9BTE6 (Q9BTE6 whole entry): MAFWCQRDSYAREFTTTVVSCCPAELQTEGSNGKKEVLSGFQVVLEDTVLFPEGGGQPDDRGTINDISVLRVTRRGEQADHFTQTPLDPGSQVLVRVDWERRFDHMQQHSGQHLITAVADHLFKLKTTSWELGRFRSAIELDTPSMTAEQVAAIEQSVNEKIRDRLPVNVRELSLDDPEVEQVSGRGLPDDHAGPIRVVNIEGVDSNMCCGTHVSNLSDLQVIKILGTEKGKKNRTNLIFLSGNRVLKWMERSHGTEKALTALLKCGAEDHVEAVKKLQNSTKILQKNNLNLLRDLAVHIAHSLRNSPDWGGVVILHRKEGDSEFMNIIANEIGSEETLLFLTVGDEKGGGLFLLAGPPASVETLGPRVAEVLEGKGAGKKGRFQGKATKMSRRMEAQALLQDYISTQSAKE
Sequence of UniProt O15440 (O15440 whole entry): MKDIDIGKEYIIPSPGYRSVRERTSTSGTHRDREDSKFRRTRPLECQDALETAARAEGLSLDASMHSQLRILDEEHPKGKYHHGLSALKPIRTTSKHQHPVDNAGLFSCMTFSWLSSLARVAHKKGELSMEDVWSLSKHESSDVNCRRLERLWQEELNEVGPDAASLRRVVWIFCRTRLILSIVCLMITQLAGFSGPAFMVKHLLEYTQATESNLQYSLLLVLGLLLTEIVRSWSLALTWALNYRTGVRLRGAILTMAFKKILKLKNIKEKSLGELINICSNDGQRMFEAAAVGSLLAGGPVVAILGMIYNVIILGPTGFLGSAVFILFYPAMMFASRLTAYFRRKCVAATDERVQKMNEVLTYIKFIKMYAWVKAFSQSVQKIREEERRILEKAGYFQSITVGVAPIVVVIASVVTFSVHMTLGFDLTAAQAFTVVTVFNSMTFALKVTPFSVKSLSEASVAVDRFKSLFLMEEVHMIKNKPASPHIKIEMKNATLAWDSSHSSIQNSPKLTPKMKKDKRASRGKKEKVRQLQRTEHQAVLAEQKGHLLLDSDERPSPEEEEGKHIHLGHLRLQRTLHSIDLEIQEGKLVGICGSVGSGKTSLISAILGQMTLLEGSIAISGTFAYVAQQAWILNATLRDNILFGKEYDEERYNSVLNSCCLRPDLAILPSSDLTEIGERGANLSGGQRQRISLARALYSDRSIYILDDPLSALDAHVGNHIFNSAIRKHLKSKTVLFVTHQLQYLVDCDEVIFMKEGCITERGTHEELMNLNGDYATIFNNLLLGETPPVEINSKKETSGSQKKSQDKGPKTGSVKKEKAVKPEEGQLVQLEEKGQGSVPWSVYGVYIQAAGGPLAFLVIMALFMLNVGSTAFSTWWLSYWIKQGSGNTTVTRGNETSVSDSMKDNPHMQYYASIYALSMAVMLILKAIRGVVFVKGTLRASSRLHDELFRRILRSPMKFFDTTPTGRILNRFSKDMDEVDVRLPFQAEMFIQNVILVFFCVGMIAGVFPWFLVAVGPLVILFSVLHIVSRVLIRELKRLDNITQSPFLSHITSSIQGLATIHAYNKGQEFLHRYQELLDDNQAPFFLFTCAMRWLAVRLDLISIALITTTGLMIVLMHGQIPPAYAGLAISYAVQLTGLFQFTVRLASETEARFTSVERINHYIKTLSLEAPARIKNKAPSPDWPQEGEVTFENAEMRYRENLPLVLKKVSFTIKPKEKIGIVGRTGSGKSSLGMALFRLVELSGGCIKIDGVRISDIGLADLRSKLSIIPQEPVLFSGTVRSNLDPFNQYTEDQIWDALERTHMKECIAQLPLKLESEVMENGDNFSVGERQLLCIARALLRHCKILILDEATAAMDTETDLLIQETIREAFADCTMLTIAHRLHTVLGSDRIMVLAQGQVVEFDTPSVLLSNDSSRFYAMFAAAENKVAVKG

Target	thermal stability z-score [1, 3]	thermal stability z-score ([1]; arsenate co-treatment: none)	thermal stability z-score [2]
A0A0B4J2A0|SHPK	-0.157	-0.0688	-0.112
A0A0C4DFX4|SRCAP	0.121	-0.226	-0.111
A0A087WV05|MYCBP	1.93	1.66	0.26
A0A087WZ62	0.00979	0.224	0.358
AAAS (UniProt Q9NRG9)	-0.373	-0.12	0.108
AACS (UniProt Q86V21)	-0.257	-0.135	0.635
AAGAB (UniProt Q6PD74)	0.334	0.843	2.05
AAK1 (UniProt Q2M2I8)	0.286	0.0193	0.0056
AAMDC (UniProt Q9H7C9)	1.03	0.608	0.207
AAMP (UniProt Q13685)	0.409	-0.389	0.924
AAR2 (UniProt Q9Y312)	-0.223	0.408	-0.912
AARS2 (UniProt Q5JTZ9)	-0.428	-0.143	-0.095
AARS (UniProt P49588)	-0.195	-0.297	-1.29
AARSD1 (UniProt Q9BTE6)	0.0117	0.0955	0.428
AASDHPPT (UniProt Q9NRN7)	0.269	0.269	-0.589
ABCA2 (UniProt Q9BZC7)	0.0542	0.0722	-0.0916
ABCB1 (UniProt P08183)	0.00691	0.00658	-0.039
ABCB6 (UniProt Q9NP58)	-0.585	-0.323	-0.252
ABCB7 (UniProt O75027)	0.117	0.0859	0.456
ABCB8 (UniProt Q9NUT2)	-0.84	-0.813	-1.1
ABCB10 (UniProt Q9NRK6)	0.329	0.173	-0.034
ABCC1 (UniProt P33527)	0.473	0.0236	-0.579
ABCC2 (UniProt Q92887)	1.06	1.14	-0.256
ABCC4 (UniProt O15439)	0.622	0.731	-0.0795
ABCC5 (UniProt O15440)	0.335	0.0156	-0.077
ABCD1 (UniProt P33897)	-0.752	-0.422	0.118
ABCD3 (UniProt P28288)	-0.0141	-0.0329	-0.13
ABCE1 (UniProt P61221)	0.0869	0.0991	-0.471

Target	thermal stability z-score [1, 3]	thermal stability z-score ([1]; arsenate co-treatment: none)	thermal stability z-score [2]
ABCF1 (UniProt Q8NE71)	-0.384	-0.353	1.14
ABCF2 (UniProt Q9UG63)	-0.652	-0.279	1.72
ABCF3 (UniProt Q9NUQ8)	-0.505	-0.0312	0.516
ABCG2 (UniProt Q9UNQ0)	0.0159	-0.208	1.12
ABHD6 (UniProt Q9BV23)	-1.6	-1.07	-0.179
ABHD10 (UniProt Q9NUJ1)	0.377	-0.241	-0.374
ABHD11 (UniProt Q8NFV4)	0.183	0.151	0.254
ABHD12 (UniProt Q8N2K0)	-0.435	-0.517	-0.351
ABHD14B (UniProt Q96IU4)	1.24	0.828	0.527
ABHD16A (UniProt O95870)	-0.193	-0.0821	1.11
ABHD17B (UniProt Q5VST6)	-0.119	0.135	-0.595
ABHD17C (UniProt Q6PCB6)	-0.923	-0.152	-0.29
ABI1 (UniProt Q8IZP0)	-0.715	-0.452	-0.656
ABI2 (UniProt Q9NYB9)	0.0724	0.978	0.72
ABL1 (UniProt P00519)	-0.261	-0.21	0.137
ABL2 (UniProt P42684)	-0.0711	-0.109	-0.0185
ABLIM1 (UniProt O14639)	0.77	1.47	-1.82
ABR (UniProt Q12979)	-0.754	-0.915	-0.555
ACAA1 (UniProt P09110)	-0.181	0.335	0.919
ACAA2 (UniProt P42765)	0.0666	0.0527	-0.24
ACACA (UniProt Q13085)	-0.534	-0.289	0.153
ACAD8 (UniProt Q9UKU7)	0.0722	-0.0632	-0.989
ACAD9 (UniProt Q9H845)	0.127	0.0316	-0.21
ACAD11 (UniProt Q709F0)	-0.363	0.0251	-0.343
ACADM (UniProt P11310)	0.376	0.186	-1.07
ACADS (UniProt P16219)	0.116	-1.16	-2.93
ACADSB (UniProt P45954)	0.39	0.509	0.00788
